Reference: patent US11279708B2, “Amidino- and amino-rocaglates as novel translation inhibitors and anticancer agents” (priority 2019, dated 2022)

Key:
[1] = system: NIH/3T3 cells; test: Sulforhodamine B (SRB) cytotoxicity assay; assay type: cell-based
Procedure: In cellula activity of rocaglates. All compounds in the rocaglate collection were assessed for cytotoxic activity towards NIH/3T3 cells as well as the rocaglate-resistant line, eIF4A^em1JP, which harbors an F163L mutation in eIF4A1. This mutation was originally identified following selection for RocA-resistant yeast mutants and F163 was subsequently shown to be critical for stacking with ring C of RocA (2) (FIG. 4). Although eIF4A2 is also a target of rocaglates, eIF4A1 F163L is sufficient to confer resistance to rocaglate-induced translation inhibition and cytotoxicity, likely due to eIF4A1 being the more abundant isoform in NIH/3T3 cells (250-fold higher). […] Lastly, although effective at inhibiting cap-dependent translation in vitro, WGD-57-591 (no activity @ 40 nM) and WGD-57-590 (12% growth inhibition @ 40 nM) performed poorly in this assay.
Sulforhodamine B (SRB) assay. NIH/3T3 cells were seeded at a density of 1000 cells/well in a 96 well format and incubated in presence of each 40 nM compound. After 4 days of culture, cells were washed with PBS, fixed with 50% trichloroacetic (TCA) acid for 1 hour, and then stained with 0.5% sulforhodamine B in 1% acetic acid for 15 min. Plates were then washed 5 times with 1% acetic acid, dried, and the stained wells were resuspended with 10 mM Tris (pH 9) prior to measuring the absorbance at 510 nm using (Spectramax M5, Molecular Devices)
(§1) FIGS. 26A-26B. In cellula activity of rocaglates. 26A. Cytotoxicity of rocaglates towards NIH/3T3 (grey circle) and the NIH/3T3 rocaglate-resistant line, eIF4A^em1JP(redtriangle). Cells were exposed to 40 nM compound for 4 days and viability was measured using the SRB assay. n=3±SD. 26B. Rocaglates show different sequence preferences for inhibiting cap-dependent translation in cellula. HEK 293 cells were transfected with 0.5 μg of in vitro synthesized capped (AG)10-FF/HCV/Ren or (UC)10-FF/HCV/Ren mRNA and 1h later exposed to the indicated concentrations of compounds for an additional 6 h, at which time extracts were prepared and luciferase activity measured. n=3 SD.

[2] = system: HEK 293 cells; test: in cellula translation of transfected (AG)10- and (UC)10-FF/HCV/Ren mRNA; assay type: cell-based; settings: compound added 1 h after mRNA transfection, 6 h exposure
Text: We next asked if differences in behavior among rocaglates towards the (AG)10- and (UC)10-reporters observed in vitro also extended in cellula (FIG. 26B). This was important since in cells, mRNA transcripts need to compete for components of the translation initiation machinery from a complex cellular mRNA pool and this scenario is difficult to recapitulate in experiments using cell-free extracts. Following mRNA transfections, cells were exposed to compound and luciferase activity determined.
RNA Transfections. HEK 293 cells were transfected in a 24 well plate with 0.25 μg/well of in vitro synthesized capped m^7GpppG(AG)10-FF/HCV/Ren or m^7GpppG(UC)10FF/HCV/Ren mRNA and 1 h later were exposed to the indicated concentrations of compounds for an additional 6 h. Following this, extracts were prepared using passive lysis buffer (PLB, Promega) and luciferase activity measured on a Berthold Lumt LB 9507 luminometer.
as §1
FIG. 28. In cellula dose-response of (AG)10- and (UC)10-FF/HCV/Ren mRNAs to hippuristanol and pateamine. Firefly and renilla luciferase activity in response to the indicated compound concentrations (relative to DMSO controls) following mRNA transfections in 293 cells. n=3±SD.

[3] = target: T1, eIF4A1:poly r(AG)8 RNA (Homo sapiens, UniProt P60842); test: fluorescence polarization (FP) assay, eIF4A1 binding to FAM-labelled RNA; settings: 500 nM eIF4A1, 10 nM FAM-labelled RNA, screen at 10 μM compound
T1 construct: His6 (N); made in house; host or cells: E. coli BL21 (DE3)
T1 sequence (P60842 whole entry, species assumed): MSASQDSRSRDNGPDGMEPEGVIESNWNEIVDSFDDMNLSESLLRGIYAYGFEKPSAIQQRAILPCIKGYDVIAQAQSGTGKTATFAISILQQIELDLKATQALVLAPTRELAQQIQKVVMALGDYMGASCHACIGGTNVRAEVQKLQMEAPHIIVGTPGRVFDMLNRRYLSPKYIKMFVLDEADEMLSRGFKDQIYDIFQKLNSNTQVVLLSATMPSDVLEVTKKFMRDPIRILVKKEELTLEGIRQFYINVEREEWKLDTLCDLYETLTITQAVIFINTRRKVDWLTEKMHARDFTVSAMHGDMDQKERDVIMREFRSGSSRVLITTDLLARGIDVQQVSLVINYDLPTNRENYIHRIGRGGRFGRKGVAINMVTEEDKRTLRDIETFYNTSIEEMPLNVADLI
Text: Rocaglates similarly enhance RNA binding of eIF4A1 and eIF4A2. In order to rapidly evaluate the ability of rocaglates to stimulate binding of eIF4A to RNA, a fluorescence polarization (FP) assay using a FAM (fluorescein amidite)-labelled RNA probe (FIG. 18A) was used. […] Due to the high degree of shared amino acid identity between the two paralogs, their apparent similarity with respect to RNA binding activity and response to CR-1-31-B (23), and the fact that eIF4A1 is essential but eIF4A2 is not, eIF4A1 was used in the majority of our subsequent experiments.
Fluorescence Polarization (FP) Assays. Unless otherwise specified, eIF4A (500 nM) was incubated with 10 nM FAM-labelled RNA for 30 min in FP buffer (14.4 mM HEPES-NaOH (pH 8), 108 mM NaCl, 1 mM MgCl2, 14.4% glycerol, 0.1% DMSO, 2 mM DTT, 1 mM AMPPNP) at room temperature in black low volume 384 well plates (Corning 3820). FP readings were performed on a Pherastar FS microplate reader (BMG Labtech).
FIGS. 19A-19C. Rocaglate activity profiling. 19A. Assessing eIF4A1:poly r(AG)8 (SEQ ID NO: 2) RNA binding by FP in the presence of 10 μM rocaglate. Values are expressed relative to vehicle controls and data is rank ordered. n=3±SD. 19B. The change in polarization obtained with eIF4A1:poly r(AG)8 (SEQ ID NO: 2) and eIF4A2:poly r(AG)8 (SEQ ID NO: 2) RNA. Pearson r=0.814; p<0.0001. 19C. Inhibition of cap-dependent translation by rocaglates was measured using the indicated mRNA bicistronic reporter (4 ng/ul) in Krebs-2 extracts at a final compound concentration of 2 μM. n=3±SD.
FIG. 21. Assessing stimulation of eIF4A1:RNA binding by rocaglates and pateamine. FAM-labelled RNA was incubated in the presence of 500 nM eIF4A1 and the indicated concentrations of compound for 30 min, after which time FP measurements were taken. Limitations in WGD-57-591 availability prevented us from extending the titrations to 100 μM. The change in FP obtained relative to vehicle controls is presented. n=3±SD. FP results of competition assays in which preformed eIF4A1:rocaglate:FAM-poly r(AG)10 complexes were incubated in the presence of poly r(AG)10 (SEQ ID NO: 39) and dissociation measured as a function of time. n=3±SD.

Row | Compound | rank among the top 15 cytotoxic rocaglates ([1]; 40 nM, 4 days) [th] | inhibition of (AG)10 versus (UC)10 reporter in cellula (in words) [2] | stimulation of eIF4A1:RNA binding (in words) [3] | IC50 ([1]; 4 day exposure, read-out: IC50, cytotoxicity towards NIH/3T3 cells) [nM] | stimulation of eIF4A1:RNA binding (in words) ([3]; listed as Silvestrol)
1 | COC(=O)[C@@H]1[C@@H](c2ccccc2)[C@]2(c3ccc(OC)cc3)Oc3cc(OC)cc(OC)c3[C@@]23N=C(C)N[C@@]13O [9b] | 10 | slight preference for inhibiting the (AG)10-FF/HCV/Ren reporter mRNA | – | – | –
2 | CONC(=O)[C@H]1[C@@H](O)[C@@]2(O)c3c(OC)cc(OC)cc3O[C@@]2(c2ccc(OC)cc2)[C@@H]1c1ccccc1 [CR-1-31-B] | – | showed preference for inhibiting (AG)10-FF/HCV/Ren over (UC)10-FF/HCV/Ren mRNA | preferentially stimulated binding of eIF4A1 to RNA harboring polypurine bases | ~8.5 | –
3 | COc1ccc([C@@]23Oc4cc(OC)cc(OC)c4[C@]2(O)[C@H](O)[C@H](C(=O)N(C)C)[C@H]3c2ccccc2)cc1 [RocA, rocaglamide A] | – | – | activity similar to CR-1-31-B | – | –
4 | COC(=O)[C@H]1[C@@H](O)[C@@]2(O)c3c(OC)cc(O[C@@H]4O[C@@H]([C@H](O)CO)CO[C@H]4OC)cc3O[C@@]2(c2ccc(OC)cc2)[C@@H]1c1ccccc1 [silvestrol] | – | inhibited both reporters equally | less potent across the concentrations tested | – | relatively weak activity
